Laboratory results: patent US20240245677A1, “SELECTED COMPOUNDS FOR TARGETED DEGRADATION OF BRD9” (C4 THERAPEUTICS, INC., priority 2021, published 2024)
“And” between values parts separate entries of the source, which are not always exact repeats. Equal values may be shown once. Read-outs that look alike come from different tables or passages of the source.

Legend:
BRD7 = target: T1, BRD7 (Homo sapiens, UniProt Q9NPI1); assay: BRD7 HiBiT degradation assay in HEK293T.167 cells; assay type: cell-based
T1 construct: endogenously expressing BRD7 with HiBiT fusion tag via CRISPR; host or cells: HEK293T.167 (293T.167, BRD7-HiBiT HEK293, LgBiT by lentivirus)
T1 sequence (Q9NPI1 1-651): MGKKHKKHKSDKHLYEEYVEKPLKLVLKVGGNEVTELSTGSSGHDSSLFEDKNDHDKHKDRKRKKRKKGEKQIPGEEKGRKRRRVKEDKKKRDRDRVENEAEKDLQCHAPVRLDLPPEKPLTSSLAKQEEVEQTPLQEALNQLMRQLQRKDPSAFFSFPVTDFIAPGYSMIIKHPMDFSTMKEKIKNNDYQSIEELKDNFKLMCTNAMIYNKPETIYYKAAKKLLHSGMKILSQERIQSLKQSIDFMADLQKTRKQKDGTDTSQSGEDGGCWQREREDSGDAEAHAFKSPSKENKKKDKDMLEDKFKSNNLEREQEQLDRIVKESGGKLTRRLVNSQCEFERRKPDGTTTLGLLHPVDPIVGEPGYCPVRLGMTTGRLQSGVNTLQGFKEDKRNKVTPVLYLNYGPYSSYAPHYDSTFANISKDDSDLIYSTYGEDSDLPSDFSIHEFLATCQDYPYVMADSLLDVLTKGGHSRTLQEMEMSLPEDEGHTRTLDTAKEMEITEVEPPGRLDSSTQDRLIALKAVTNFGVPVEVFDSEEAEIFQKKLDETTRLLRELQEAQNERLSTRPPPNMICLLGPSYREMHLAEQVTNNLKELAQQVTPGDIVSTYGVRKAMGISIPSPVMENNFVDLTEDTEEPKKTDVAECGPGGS

bromodomain of BRD9 = target: T2, bromodomain of BRD9 (Homo sapiens, UniProt Q9H8M2); assay: AlphaLISA competition assay, binding to BRD9
T2 construct: made in house; host or cells: E. coli
T2 sequence (Q9H8M2 136-240 limits assumed): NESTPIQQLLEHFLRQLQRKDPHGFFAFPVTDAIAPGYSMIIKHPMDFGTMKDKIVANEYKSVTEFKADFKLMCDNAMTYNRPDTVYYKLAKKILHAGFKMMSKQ
Procedure: An AlphaLISA® (Perkin Elmer Inc., Dumfries, VA, USA) displacement assay was used to determine the binding affinity of Compound 1 to purified bromodomain of BRD9 protein.
Human histidine-tagged (His-tag) bromodomain of BRD9 was expressed in E. coli and purified, with a concentration of 1.1 mg/mL. The bromodomain of BRD9 was labeled with an AlphaLISA® donor bead (Catalog No. AS101R, Perkin Elmer Inc., Dumfries, VA, USA) attached via a His-tag on the protein. A potent BRD9 ligand was chemically modified to attach a biotin tag. The biotin tag was subsequently used to attach a streptavidin-labeled AlphaLISA® acceptor bead (Catalog No. AL125M, Perkin Elmer Inc., Dumfries, VA, USA).
Determination of the binding constant (Kd) of Compound 1 to the bromodomain of BRD9 was carried out using an AlphaLISA® competition assay, where binding of Compound 1 to BRD9 was measured via loss of signal upon displacement of biotinylated BRD9 ligand tagged with the AlphaLISA® acceptor bead. […]
Response (normalized signal), R, for each well containing the test compounds was calculated using the averaged signal from negative and positive control wells: […]
Compound 1 competed with fluorescence probe for binding to bromodomain of BRD9. […]

In the case of `COc1cc(-c2cn(C)c(=O)c(C)c2C)cc(OC)c1CN1CC[C@H](N2CCN(c3ccc(N[C@H]4CCC(=O)NC4=O)cc3F)CC2)C(F)(F)C1` [Compound 1, (S)-3-((4-(4-((S)-1-(2,6-dimethoxy-4-(1,4,5-trimethyl-6-oxo-1,6-dihydropyridin-3-yl)benzyl)-3,3-difluoropiperidin-4-yl)piperazin-1-yl)-3-fluorophenyl)amino)-piperidine-2,6-dione], the “% BRD7 Remaining Relative to Vehicle Control at 24 hr, Mean” value (BRD7; 0.101 nM) is reported as 99.8%, the “% BRD7 Remaining Relative to Vehicle Control at 24 hr, Mean” value (BRD7; 0.318 nM) is reported as 101.3% and the “% BRD7 Remaining Relative to Vehicle Control at 24 hr, Mean” value (BRD7; 1.01 nM) is reported as 101.0%. For the same compound, the “% BRD7 Remaining Relative to Vehicle Control at 24 hr, Mean” value (BRD7; 3.17 nM) was 99.8%, the “% BRD7 Remaining Relative to Vehicle Control at 24 hr, Mean” value (BRD7; 10.0 nM) was 102.4% and the “% BRD7 Remaining Relative to Vehicle Control at 24 hr, Mean” value (BRD7; 31.7 nM) was 103.4%. The “% BRD7 Remaining Relative to Vehicle Control at 24 hr, Mean” value (BRD7; 100 nM) was 101.0%, the “% BRD7 Remaining Relative to Vehicle Control at 24 hr, Mean” value (BRD7; 317 nM) was 102.3% and the “% BRD7 Remaining Relative to Vehicle Control at 24 hr, Mean” value (BRD7; 1000 nM) was 106.3%. For the same compound, the “% BRD7 Remaining Relative to Vehicle Control at 24 hr, Mean” value (BRD7; 3161 nM) was 117.4%, the “% BRD7 Remaining Relative to Vehicle Control at 24 hr, Mean” value (BRD7; 9990 nM) was 143.3% and the DC50 (BRD7; BRD7-HiBiT, 293T.167 cells, 24 hours, read-out: Mean DC50) was greater than 10000 nM. The Emax (BRD7; BRD7-HiBiT, 293T.167 cells, 24 hours, read-out: Mean Emax (%) ± SD) was 97.6 ± 6.41%, the “effect on the degradation of BRD7” value (BRD7; concentrations up to 10 μM, 24 hours) was “no significant effect” and the DC50 (BRD7; summary statement, read-out: DC50 against BRD7) was greater than 1000 nM. The Kd (bromodomain of BRD9; each occasion in duplicate, read-out: Kd, individual test occasion) was 157 nM and 131 nM and 129 nM and the Kd (bromodomain of BRD9; n=3, read-out: Kd (geometric mean), binding affinity to BRD9) was 139 nM.
